Where a SMILES comes first, the peptide text is derived from it.
biological target: HLA B*1503 (Homo sapiens, UniProt P01889, A329T/A93T/A95T/C349S/D201E/D98Y/E187L/E204Q/K202T/N87E/Q94N/R155S/R180L/S121R/S35A/V306I/V36M/Y140S/Y91S); experiment: biochemical; assay type: binding

With `CSCC[C@H](NC(=O)[C@H](CCCCN)NC(=O)[C@@H](N)CCCCN)C(=O)N[C@H](C(=O)N[C@@H](CS)C(=O)NCC(=O)N[C@@H](CCC(N)=O)C(=O)N1CCC[C@H]1C(=O)N[C@@H](CC(C)C)C(=O)O)[C@@H](C)O` [3102.1121] (H-KKMTCGQPL-OH) as the compound, how does the IC50 read?
The IC50 was 1.5 nM.

`CC(C)[C@H](N)C(=O)N[C@@H](CCCCN)C(=O)N[C@H](C(=O)N[C@@H](CCCCN)C(=O)N[C@@H](CCC(=O)O)C(=O)N[C@@H](CCC(=O)O)C(=O)N[C@@H](CC(N)=O)C(=O)N[C@H](C(=O)N[C@@H](Cc1ccccc1)C(=O)O)[C@@H](C)O)C(C)C` [3102.1122] (H-VKVKEENTF-OH) was tested. Which IC50 did it give?
The IC50 was 0.42 nM.

With `CC(C)[C@H](NC(=O)[C@H](CCC(N)=O)NC(=O)[C@@H](N)CCCNC(=N)N)C(=O)N[C@H](C(=O)N[C@@H](CC(=O)O)C(=O)N[C@@H](Cc1ccccc1)C(=O)N[C@@H](Cc1ccccc1)C(=O)N[C@@H](CCCCN)C(=O)N[C@@H](Cc1ccccc1)C(=O)O)C(C)C` [3102.1123] (H-RQVVDFFKF-OH) as the compound, how does the IC50 read?
Its IC50 is 0.34 nM.

For `CC(C)[C@H](NC(=O)[C@H](Cc1ccc(O)cc1)NC(=O)[C@H](CCC(N)=O)NC(=O)[C@@H](N)Cc1ccccc1)C(=O)N[C@@H](CO)C(=O)N[C@@H](Cc1ccc(O)cc1)C(=O)N[C@@H](CO)C(=O)N[C@@H](CC(N)=O)C(=O)N[C@@H](Cc1ccccc1)C(=O)O` [3102.1128] (H-FQYVSYSNF-OH), which IC50 is on record?
Its IC50 is 0.26 nM.

For `CC(C)C[C@H](NC(=O)[C@H](CO)NC(=O)[C@@H](NC(=O)[C@H](CCCNC(=N)N)NC(=O)[C@H](CO)NC(=O)[C@H](CC(C)C)NC(=O)[C@H](Cc1ccc(O)cc1)NC(=O)[C@H](CCC(N)=O)NC(=O)[C@@H](N)CO)C(C)C)C(=O)O` [3102.1130] (H-SQYLSRVSL-OH), which IC50 is on record?
The IC50 was 0.24 nM.

Which IC50 does the source give for `CC(C)C[C@H](NC(=O)[C@@H](NC(=O)[C@H](CC(N)=O)NC(=O)[C@@H]1CCCN1C(=O)[C@@H]1CCCN1C(=O)[C@H](CO)NC(=O)[C@@H](NC(=O)[C@H](CO)NC(=O)[C@@H](N)CO)C(C)C)C(C)C)C(=O)O` [3102.1131] (H-SSVSPPNVL-OH) here?
Its IC50 is 18 nM.

For `CC[C@H](C)[C@H](NC(=O)[C@H](CCC(N)=O)NC(=O)[C@H](CC(N)=O)NC(=O)[C@H](CC(=O)O)NC(=O)[C@H](CCCNC(=N)N)NC(=O)[C@H](C)NC(=O)[C@@H](N)Cc1ccccc1)C(=O)N[C@@H](CO)C(=O)N[C@@H](Cc1ccccc1)C(=O)O` [3102.1132] (H-FARDNQISF-OH), which IC50 is on record?
Its IC50 is 0.2 nM.

`CC(C)[C@H](NC(=O)[C@H](Cc1c[nH]cn1)NC(=O)[C@H](CCC(N)=O)NC(=O)CNC(=O)[C@H](Cc1ccccc1)NC(=O)[C@H](CS)NC(=O)[C@H](CC(N)=O)NC(=O)[C@H](C)NC(=O)[C@H](C)N)C(=O)O` [3102.1133] (H-AANCFGQHV-OH) was tested. Which IC50 did it give?
Its IC50 is 22 nM.

`CC[C@H](C)[C@H](NC(=O)[C@@H]1CCCN1C(=O)CNC(=O)[C@H](Cc1ccccc1)NC(=O)[C@H](Cc1ccccc1)NC(=O)[C@@H](NC(=O)[C@H](CCCCN)NC(=O)[C@@H](N)CO)C(C)C)C(=O)N[C@@H](Cc1ccc(O)cc1)C(=O)O` [3102.1134] (H-SKVFFGPIY-OH) was tested. Which IC50 did it give?
The IC50 was 1 nM.

Which IC50 does the source give for `CC(C)C[C@H](NC(=O)[C@H](Cc1ccccc1)NC(=O)[C@@H]1CCCN1C(=O)[C@H](CCCNC(=N)N)NC(=O)[C@@H](NC(=O)[C@H](CC(C)C)NC(=O)[C@@H](N)CCCNC(=N)N)C(C)C)C(=O)N[C@H](C(=O)N[C@H](C(=O)O)C(C)C)C(C)C` [3102.1135] (H-RLVRPFLVV-OH) here?
The IC50 was 16 nM.

For `CC[C@H](C)[C@H](N)C(=O)N[C@@H](CCCCN)C(=O)N[C@@H](CO)C(=O)N[C@@H](Cc1ccc(O)cc1)C(=O)N[C@H](C(=O)N[C@H](C(=O)N[C@@H](CCCNC(=N)N)C(=O)N[C@H](C(=O)N[C@@H](Cc1ccccc1)C(=O)O)C(C)C)[C@@H](C)CC)[C@@H](C)O` [3102.1137] (H-IKSYTIRVF-OH), which IC50 is on record?
Its IC50 is 1.6 nM.

`CC[C@H](C)[C@H](NC(=O)[C@H](CCSC)NC(=O)[C@H](CC(C)C)NC(=O)[C@@H]1CCCN1C(=O)[C@H](CCCNC(=N)N)NC(=O)[C@H](Cc1ccccc1)NC(=O)[C@H](CCCCN)NC(=O)[C@@H](N)CCCCN)C(=O)N[C@@H](Cc1ccccc1)C(=O)O` [3102.1138] (H-KKFRPLMIF-OH) was tested. Which IC50 did it give?
The IC50 was 0.17 nM.

`CC(C)C[C@H](NC(=O)[C@H](Cc1ccccc1)NC(=O)[C@H](CCCNC(=N)N)NC(=O)[C@@H](N)CC(C)C)C(=O)N[C@@H](CCC(=O)O)C(=O)N[C@@H](CCCCN)C(=O)N[C@H](C(=O)N[C@@H](CO)C(=O)N[C@@H](Cc1ccccc1)C(=O)O)[C@@H](C)O` [3102.1139] (H-LRFLEKTSF-OH) was tested. Which IC50 did it give?
Its IC50 is 2.2 nM.

Which IC50 does the source give for `CC[C@H](C)[C@H](NC(=O)[C@@H](NC(=O)[C@H](CCSC)NC(=O)[C@@H](N)CO)C(C)C)C(=O)N[C@@H](CO)C(=O)N[C@@H](CC(C)C)C(=O)N[C@@H](CC(C)C)C(=O)N[C@@H](CO)C(=O)N[C@@H](CCSC)C(=O)O` [3102.1140] (H-SMVISLLSM-OH) here?
The IC50 was 8 nM.

How did the IC50 turn out when `CC[C@H](C)[C@H](N)C(=O)N[C@@H](CC(C)C)C(=O)N[C@@H](Cc1c[nH]cn1)C(=O)N[C@@H](CO)C(=O)N[C@@H](CC(=O)O)C(=O)N[C@@H](Cc1ccc(O)cc1)C(=O)N[C@@H](CCC(N)=O)C(=O)N[C@@H](CC(C)C)C(=O)N[C@@H](Cc1ccccc1)C(=O)O` [3102.1141] (H-ILHSDYQLF-OH) was run?
The IC50 was 2.4 nM.

Which IC50 does the source give for `CSCC[C@H](NC(=O)[C@H](CCCCN)NC(=O)[C@@H](N)CCCCN)C(=O)N[C@@H](CCC(N)=O)C(=O)N[C@@H](CO)C(=O)N[C@@H](Cc1ccc(O)cc1)C(=O)N[C@@H](CC(N)=O)C(=O)N[C@@H](CO)C(=O)N[C@H](C(=O)O)C(C)C` [3102.1143] (H-KKMQSYNSV-OH) here?
The IC50 was 2.8 nM.

With `CC[C@H](C)[C@H](NC(=O)[C@H](CO)NC(=O)[C@H](Cc1ccc(O)cc1)NC(=O)[C@@H](NC(=O)[C@H](C)NC(=O)[C@H](Cc1c[nH]cn1)NC(=O)[C@@H](N)CC(C)C)C(C)C)C(=O)N[C@H](C(=O)N[C@@H](Cc1ccccc1)C(=O)O)C(C)C` [3102.1145] (H-LHAVYSIVF-OH) as the compound, how does the IC50 read?
Its IC50 is 8.8 nM.

For `CC[C@H](C)[C@H](N)C(=O)N[C@@H](CCCCN)C(=O)N[C@@H](CCC(=O)O)C(=O)N[C@@H](CC(N)=O)C(=O)N[C@@H](CO)C(=O)N[C@H](C(=O)N[C@@H](Cc1ccc(O)cc1)C(=O)N[C@@H](CO)C(=O)N[C@@H](Cc1ccccc1)C(=O)O)[C@@H](C)CC` [3102.1146] (H-IKENSIYSF-OH), which IC50 is on record?
Its IC50 is 1.5 nM.

For `CC[C@H](C)[C@H](NC(=O)[C@H](CO)NC(=O)[C@H](CO)NC(=O)[C@H](CO)NC(=O)[C@H](Cc1ccc(O)cc1)NC(=O)[C@H](C)NC(=O)[C@H](CC(C)C)NC(=O)[C@@H](N)C(C)C)C(=O)N[C@@H](Cc1ccccc1)C(=O)O` [3102.1150] (H-VLAYSSSIF-OH), which IC50 is on record?
Its IC50 is 5.4 nM.

Which IC50 does the source give for `CC[C@H](C)[C@H](N)C(=O)N[C@@H](Cc1c[nH]cn1)C(=O)N[C@H](C(=O)N1CCC[C@H]1C(=O)N[C@@H](CCC(N)=O)C(=O)N[C@@H](CO)C(=O)N[C@@H](CCC(N)=O)C(=O)N[C@@H](CC(C)C)C(=O)N[C@@H](Cc1ccccc1)C(=O)O)[C@@H](C)CC` [3102.1155] (H-IHIPQSQLF-OH) here?
The IC50 was 5.5 nM.

Which IC50 does the source give for `CC[C@H](C)[C@H](NC(=O)[C@H](CO)NC(=O)[C@@H](N)Cc1ccccc1)C(=O)N[C@@H](CC(C)C)C(=O)N[C@@H](Cc1ccccc1)C(=O)N[C@@H](CO)C(=O)N[C@@H](CC(N)=O)C(=O)N[C@@H](CC(N)=O)C(=O)N[C@@H](Cc1ccccc1)C(=O)O` [3102.1156] (H-FSILFSNNF-OH) here?
The IC50 was 30 nM.
